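Growth conditions: 96-well plates. Treatment: test compound, 48 hours, 5 concentrations. Analysis: linear interpolation between bracketing concentrations; unreached endpoints set to highest concentration. Here, GI50 denotes the concentration required for 50% inhibition of growth.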 Active and inactive are the calls of the source. Cut-off read from the data, not from the text of the source: active = GI50 up to about 1.1 µM and inactive = higher.
Legend:
Assay in all cases: NCI-60 cell line screen, 48 h
ACHN = system: ACHN
COLO 205 = system: COLO 205
DU-145 = system: DU-145
EKVX = system: EKVX
HOP-62 = system: HOP-62
HOP-92 = system: HOP-92
IGROV-1 = system: IGROV-1
NCI-H460 = system: NCI-H460
NCI/ADR-RES = system: NCI/ADR-RES
OVCAR-4 = system: OVCAR-4
OVCAR-5 = system: OVCAR-5
PC-3 = system: PC-3
SF-268 = system: SF-268
SK-OV-3 = system: SK-OV-3
SNB-19 = system: SNB-19
SNB-75 = system: SNB-75
SW-620 = system: SW-620
TK-10 = system: TK-10
U-251 = system: U-251
UO-31 = system: UO-31

Measured: GI50

O=C(CC(=O)c1ccncc1)c1ccccc1
inactive: ACHN 67.6 µM | COLO 205 > 100 µM | DU-145 > 100 µM | EKVX > 64.3 µM | HOP-62 71.8 µM | HOP-92 > 87.1 µM | IGROV-1 > 100 µM | NCI-H460 32.9 µM | NCI/ADR-RES 24.3 µM | OVCAR-4 > 100 µM | OVCAR-5 > 100 µM | PC-3 > 77.8 µM | SF-268 63.5 µM | SK-OV-3 > 100 µM | SNB-19 > 100 µM | SNB-75 > 63.8 µM | SW-620 73.1 µM | TK-10 > 94.8 µM | U-251 49.7 µM | UO-31 > 74.5 µM

COc1cc2c(cc1OC)C13CCN4C=C5CCOC6CC(=O)N2C1C6C5CC43 (stereo not given)
inactive: ACHN > 100 µM | COLO 205 > 100 µM | DU-145 > 100 µM | EKVX > 100 µM | HOP-62 > 100 µM | HOP-92 > 100 µM | IGROV-1 > 100 µM | NCI-H460 > 100 µM | NCI/ADR-RES > 100 µM | OVCAR-4 > 100 µM | OVCAR-5 > 100 µM | PC-3 > 100 µM | SF-268 > 100 µM | SK-OV-3 > 100 µM | SNB-19 > 100 µM | SNB-75 > 100 µM | SW-620 > 100 µM | TK-10 > 100 µM | U-251 > 100 µM | UO-31 > 100 µM

CCCCCCCCC[C@@H]1C[C@@H]2CCC3C(C(=O)OCCCCNC(=O)OCc4ccccc4)=C(C)N=C(N1)N32 (stereo not given in full)
inactive: ACHN 3.15 µM | COLO 205 1.62 µM | DU-145 4.76 µM | EKVX 2.72 µM | HOP-62 3.75 µM | HOP-92 2.78 µM | IGROV-1 2.43 µM | NCI-H460 3.22 µM | NCI/ADR-RES 2.62 µM | OVCAR-4 3.97 µM | OVCAR-5 5.78 µM | PC-3 2.47 µM | SF-268 2.85 µM | SK-OV-3 3.2 µM | SNB-19 6.18 µM | SNB-75 4.59 µM | SW-620 3.45 µM | TK-10 4.5 µM | U-251 2.9 µM | UO-31 4.49 µM

O=S(=O)(O)c1c(Cl)c(Cl)c(O)c2ncccc12
inactive: ACHN 7.33 µM | COLO 205 9.95 µM | DU-145 16.6 µM | EKVX 12.2 µM | HOP-62 5 µM | HOP-92 18.8 µM | IGROV-1 4.2 µM | NCI-H460 7.36 µM | NCI/ADR-RES 5.05 µM | OVCAR-4 8.99 µM | OVCAR-5 16.7 µM | PC-3 10.8 µM | SF-268 3.79 µM | SK-OV-3 13 µM | SNB-19 11.8 µM | SNB-75 14.3 µM | SW-620 10 µM | TK-10 12.5 µM | U-251 10.8 µM | UO-31 7.08 µM

C(=N\c1ccc(-c2nc3ccccc3s2)cc1)/c1cccs1
inactive: ACHN 35.8 µM | COLO 205 42.1 µM | DU-145 69.8 µM | EKVX 45.2 µM | HOP-62 30.3 µM | HOP-92 28.4 µM | IGROV-1 49.8 µM | NCI-H460 36.1 µM | NCI/ADR-RES 43.3 µM | OVCAR-4 39.9 µM | OVCAR-5 89.1 µM | PC-3 38.1 µM | SF-268 34.8 µM | SK-OV-3 81.8 µM | SNB-19 88.3 µM | SNB-75 29.9 µM | SW-620 75.3 µM | TK-10 30.5 µM | U-251 49.2 µM | UO-31 43.9 µM

COc1cccc(Nc2nc(NNC(=O)Cc3ccccc3)nc(NNC(=O)c3ccncc3)n2)c1
inactive: ACHN > 100 µM | COLO 205 > 10 µM | DU-145 > 10 µM | EKVX > 10 µM | HOP-62 > 10 µM | HOP-92 > 10 µM | IGROV-1 > 10 µM | NCI-H460 > 10 µM | NCI/ADR-RES > 10 µM | OVCAR-4 > 10 µM | OVCAR-5 > 100 µM | PC-3 53.1 µM | SF-268 > 10 µM | SK-OV-3 > 10 µM | SNB-19 > 100 µM | SNB-75 53.5 µM | SW-620 78.2 µM | TK-10 > 10 µM | U-251 > 10 µM | UO-31 6.32 µM

O=c1[nH]c(=O)n(Cc2ccccc2CO)cc1Sc1ccccc1
inactive: ACHN 26.5 µM | COLO 205 37.2 µM | DU-145 58.9 µM | EKVX 21 µM | HOP-62 32.8 µM | HOP-92 36.2 µM | IGROV-1 12.3 µM | NCI-H460 49.7 µM | NCI/ADR-RES 26.8 µM | OVCAR-4 50 µM | OVCAR-5 > 100 µM | PC-3 33 µM | SF-268 22.8 µM | SK-OV-3 42.4 µM | SNB-19 35.7 µM | SNB-75 36.6 µM | SW-620 36.9 µM | TK-10 30.7 µM | U-251 34.4 µM | UO-31 7.4 µM
